For the test, the target named is T1, CRAC channel (Rattus norvegicus, UniProt Q5M848).
T1 construct: endogenous in cells; host or cells: HSC-T6
The test is described as follows: CRAC channel activity / SOCE in HSC-T6. The format is cell-based. The note with it: HSC-T6, 10 μM pretreatment 45 min. On the procedure:
Cells were co-treated with various compounds (10 μM) and TGF-β1 for 24 hours. Following this, cell lysates were harvested, and the protein expression was assessed by Western blot analysis. FIG. 3D depicts the examination of TGF-β1-induced fibronectin deposition and α-SMA expression in HCF treated with 10 μM of DMSO, BTP2, WRG-28, or Av through immunofluorescence staining. The images were captured using a confocal microscope, the Olympus FV-1000. FIG. 3E, FIG. 3F, and FIG. 3G illustrate the assessment of CRAC channel activity in HCF, MRC5, and rat HSC-T6. These cells were pretreated with 10 μM of BTP2, WRG-28, or Av for 45 min. The evaluation included measuring the second peak of each calcium wave and the rate of entry. Each bar within the figure represents the mean value derived from 77 to 91 cells for HCF, 31 to 49 cells for MRC5, and 43 to 94 cells for HSC-T6. In all the graphs, *, **, and *** denote p-values of <0.05, 0.01, and 0.001, respectively.
Cells cultured on a glass-bottom 96 well plate for 48 hours were treated with different compounds (10 μM) and Fura 2-AM (1 μM) simultaneously in a solution containing 145 mM NaCl, 2.8 mM KCl, 2 mM CaCl2, 2 mM MgCl2, 10 mM D-glucose, 10 mM HEPES, pH 7.4 for 40 minutes in the dark. […] All the images were analyzed by using IGOR Pro software. […]

Our source for the SOCE values is patent US20250339443A1, “METHOD FOR TREATING OR PREVENTING CALCIUM RELEASE-ACTIVATED CALCIUM CHANNEL OR DISCOIDIN DOMAIN RECEPTOR 2 RELATED DISORDERS OR CONDITIONS” (LumiSTAR Biotechnology, Inc., priority 2023, published 2025).

T1 sequence (Q5M848 whole entry): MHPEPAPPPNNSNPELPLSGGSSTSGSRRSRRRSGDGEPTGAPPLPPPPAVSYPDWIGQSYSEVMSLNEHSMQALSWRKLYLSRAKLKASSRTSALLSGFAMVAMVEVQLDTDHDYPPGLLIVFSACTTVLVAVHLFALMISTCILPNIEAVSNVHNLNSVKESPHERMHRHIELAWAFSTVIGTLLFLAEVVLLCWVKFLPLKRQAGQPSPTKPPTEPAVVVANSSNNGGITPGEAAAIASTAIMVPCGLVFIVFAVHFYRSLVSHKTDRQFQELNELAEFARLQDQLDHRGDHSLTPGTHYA

Turning to `CCNS(=O)(=O)c1ccc(COc2ccc3nc4ccc(=O)cc-4oc3c2)cc1` [WRG-28], the SOCE entry was “notably reduced”.
